Where a name gives a salt, the structure may show the parent alone.

For this test, the system named is hair cells. Kind of test: Hair cell toxicity assay in zebrafish (neomycin-induced hair cell death, DASPEI staining of neuromasts). Type of test: in vivo. As to conditions: Danio rerio; for Emax at 2.8 µM: maximum observed @ 2.8 μM test compound; for EC50: zebrafish larvae 5-7 dpf, 1 h pre-treatment, then 200 micromolar neomycin + test compound 30 min, read-out: HC50 (concentration that would produce 50% hair cell survival); for Emax at 8.3 µM: maximum observed @ 8.3 μM test compound; for Emax at 25 µM: maximum observed @ 25 μM test compound. Put shortly:
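Hair cell survival, as % of untreated controls, came from DASPEI scoring (0-2 each, ten neuromasts on one side) in 5-7 dpf larvae. These had 1 h compound pre-exposure (0.010-25 μM), then 200 μM neomycin with compound for 30 min. HCmax is peak protection; HC50 interpolated between flanking concentrations only when ≥50% survive.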

Setting [1] is: 200 micromolar neomycin, read-out: Max HC Protection (HCmax, % hair cell survival).

For `C[N+]1(CCCC(N)=O)CCc2c(sc(NC(=O)Nc3ccc(Cl)cc3)c2C(N)=O)C1` (stereo not shown) [Example 167, 6-(4-Amino-4-oxobutyl)-3-carbamoyl-2-[3-(4-chlorophenyl)ureido]-6-methyl-4,5,6,7-tetrahydrothieno[2,3-c]pyridin-6-ium trifluoroacetate], under setting [1], the Emax at 2.8 µM turned out to be 21%.
As to `NC(=O)c1c(NC(=O)Nc2ccc(Cl)cc2)sc2c1CC[N+](CCCO)(CCCO)C2` [Example 201, 3-Carbamoyl-2-[3-(4-chlorophenyl)ureido]-6,6-bis(3-hydroxypropyl)-4,5,6,7-tetrahydrothieno[2,3-c]pyridin-6-ium chloride], the EC50 was less than 1000 nM. In addition, the Emax at 2.5 µM (maximum observed @ 2.5 μM test compound, 200 micromolar neomycin, read-out: Max HC Protection (HCmax, % hair cell survival)) amounted to 102%.
On to `COC(=O)CCN1CCc2c(sc(NC(=O)Nc3ccc(Cl)cc3)c2C(N)=O)C1` [Example 55, Methyl 3-{3-carbamoyl-2-[3-(4-chlorophenyl)ureido]-4,5-dihydrothieno[2,3-c]pyridin-6(7H)-yl}propanoate], for which the Emax at 2.8 µM under setting [1] was 17%.
As to `CC(C)(C)OC(=O)N1CCC(N2CCc3c(sc(NC(=O)Nc4ccc(Cl)cc4)c3C(N)=O)C2)C1` (stereo not shown) [Example 4, tert-Butyl 3-{3-carbamoyl-2-[3-(4-chlorophenyl)ureido]-4,5-dihydrothieno[2,3-c]pyridin-6(7H)-yl}pyrrolidine-1-carboxylate], the EC50 was in the range of 1000 to 10000 nM. Also, the Emax at 8.3 µM under setting [1] came to 56%.
On to `CC(C1CCC1)N1CCc2c(sc(NC(=O)Nc3ccc(Cl)cc3)c2C(N)=O)C1` (racemic) [Example 47, (+/−)-2-[3-(4-chlorophenyl)ureido]-6-(1-cyclobutylethyl)-4,5,6,7-tetrahydrothieno[2,3-c]pyridine-3-carboxamide hydrochloride], for which the EC50 is less than 1000 nM. The Emax at 2.8 µM under setting [1] came out at 73%.
`C[N+]1(C2COC2)CCc2c(sc(NC(=O)Nc3ccc(Cl)cc3)c2C(N)=O)C1` (stereo not shown) [Example 142, 3-Carbamoyl-2-[3-(4-chlorophenyl)ureido]-6-methyl-6-(oxetan-3-yl)-4,5,6,7-tetrahydrothieno[2,3-c]pyridin-6-ium iodide]: the EC50 lay within 1000 to 10000 nM. Also, the Emax at 25 µM under setting [1] was determined as 82%.
`CC(C)(C)C[N+]1(C)CCc2c(sc(NC(=O)Nc3ccc(Cl)cc3)c2C(N)=O)C1` (stereo not shown) [Example 171, 3-Carbamoyl-2-[3-(4-chlorophenyl)ureido]-6-methyl-6-neopentyl-4,5,6,7-tetrahydrothieno[2,3-c]pyridin-6-ium iodide]: the EC50 is less than 1000 nM. The Emax at 2.8 µM under setting [1] is 92%.
On to `CCN1CCc2c(sc(NC(=O)Nc3ccc(I)cc3)c2C(N)=O)C1` [Example 224, 6-ethyl-2-{[(4-iodophenyl)carbamoyl]amino}-4H,5H,6H,7H-thieno[2,3-c]pyridine-3-carboxamide], for which the EC50 lay in the range of 1000 to 10000 nM. Further, the Emax at 12.5 µM (maximum observed @ 12.5 μM test compound, 200 micromolar neomycin, read-out: Max HC Protection (HCmax, % hair cell survival)) was found to be 94%.
On to `CN1CCCC12CCc1c(sc(NC(=O)Nc3ccc(Cl)cc3)c1C(N)=O)C2` (racemic) [Example 111, (+/−)-2-[3-(4-chlorophenyl)ureido]-1′-methyl-5,7-dihydro-4H-spiro(benzo[b]thiophene-6,2′-pyrrolidine)-3-carboxamide hydrochloride], for which the EC50 was 1000 to 10000 nM. Under setting [1], the Emax at 2.8 µM was 55%.
Take `CCOC(=O)c1c(Nc2c(Nc3ccc(Cl)cc3)c(=O)c2=O)sc2c1CCN(CC)C2` [Example 110, Ethyl 2-({2-[(4-chlorophenyl)amino]-3,4-dioxocyclobut-1-en-1-yl}amino)-6-ethyl-4,5,6,7-tetrahydrothieno[2,3-c]pyridine-3-carboxylate hydrochloride]: the EC50 was greater than 10000 nM. The Emax at 25 µM under setting [1] was 69%.
As to `NC(=O)c1c(NC(=O)Nc2ccc(Cl)cc2)sc2c1CC[N+]1(CCCC1)C2` [Example 138, 3′-Carbamoyl-2′-[3-(4-chlorophenyl)ureido]-5′,7′-dihydro-4′H-spiro[pyrrolidine-1,6′-thieno[2,3-c]pyridin]-1-ium bromide], the EC50 is less than 1000 nM. For the same compound, the Emax at 25 µM under setting [1] came to 94%.
As to `CC[N+]1(C)CCc2c(sc(NC(=O)Nc3ccc(Cl)cc3)c2C(N)=O)C1` (stereo not shown) [Example 136, 3-Carbamoyl-2-[3-(4-chlorophenyl)ureido]-6-ethyl-6-methyl-4,5,6,7-tetrahydrothieno[2,3-c]pyridin-6-ium iodide], the EC50 fell in the range of 1000 to 10000 nM. In addition, under setting [1], the Emax at 25 µM worked out at 76%.
On to `NC(=O)c1c(NC(=O)Nc2ccc(Cl)cc2)sc2c1CCN(C1CCOCC1)C2` [Example 5, 2-[3-(4-Chlorophenyl)ureido]-6-(tetrahydro-2H-pyran-4-yl)-4,5,6,7-tetrahydrothieno[2,3-c]pyridine-3-carboxamide hydrochloride], for which the EC50 lay in the range of 1000 to 10000 nM. Also, the Emax at 8.3 µM under setting [1] came to 89%.
Turning to `NC(=O)c1c(NC(=O)Nc2ccc(Cl)cc2)sc2c1CC1CCC2N1` (single isomer, unassigned; (-)) [Example 129, (−)-2-[3-(4-Chlorophenyl)ureido]-5,6,7,8-tetrahydro-4H-5,8-epiminocyclohepta[b]thiophene-3-carboxamide hydrochloride], the EC50 is less than 1000 nM. The Emax at 2.8 µM under setting [1] was 81%.
For `CC1(C[N+]2(C)CCc3c(sc(NC(=O)Nc4ccc(Cl)cc4)c3C(N)=O)C2)CC1` (stereo not shown) [Example 196, 3-Carbamoyl-2-[3-(4-chlorophenyl)ureido]-6-methyl-6-[(1-methylcyclopropyl)methyl]-4,5,6,7-tetrahydrothieno[2,3-c]pyridin-6-ium trifluoroacetate], the EC50 was less than 1000 nM. Under setting [1], the Emax at 2.8 µM amounted to 85%.
With `CCN1CCc2c(sc(NC(=O)Nc3ccc4ncccc4c3)c2C(N)=O)C1` [Example 79, 6-Ethyl-2-[3-(quinolin-6-yl)ureido]-4,5,6,7-tetrahydrothieno[2,3-c]pyridine-3-carboxamide dihydrochloride], the Emax at 0.3 µM (maximum observed @ 0.3 μM test compound, 200 micromolar neomycin, read-out: Max HC Protection (HCmax, % hair cell survival)) is 34%.
For `CCN1CCc2c(sc(NC(=O)N(C)c3ccc(Cl)cc3)c2C(N)=O)C1` [Example 106, 2-[3-(4-chlorophenyl)-3-methylureido]-6-ethyl-4,5,6,7-tetrahydrothieno[2,3-c]pyridine-3-carboxamide hydrochloride], under setting [1], the Emax at 25 µM is 23%.
As for `CCN1CCc2c(sc(NC(=O)Nc3ccc4c(c3)OC(F)(F)O4)c2C(N)=O)C1` [Example 85, 2-[3-(2,2-Difluorobenzo[d][1,3]dioxol-5-yl)ureido]-6-ethyl-4,5,6,7-tetrahydrothieno[2,3-c]pyridine-3-carboxamide hydrochloride], the EC50 is 1000 to 10000 nM. Further, the Emax at 25 µM under setting [1] was determined as 63%.
As to `Cc1c(CN2CCOCC2)sc(NC(=O)Nc2ccc(Cl)cc2)c1C(N)=O` [Example 86, 2-[3-(4-Chlorophenyl)ureido]-4-methyl-5-(morpholinomethyl)thiophene-3-carboxamide hydrochloride], the EC50 fell in the range of 1000 to 10000 nM. For the same compound, the Emax at 8.3 µM under setting [1] turned out to be 51%.
As for `CN1C2CCC1c1sc(NC(=O)Nc3ccc(C(=O)c4ccccc4)cc3)c(C(N)=O)c1C2` (racemic) [Example 126, (+/−)-2-[3-(4-Benzoylphenyl)ureido]-9-methyl-5,6,7,8-tetrahydro-4H-5,8-epiminocyclohepta[b]thiophene-3-carboxamide hydrochloride], the Emax at 2.8 µM under setting [1] was determined as 41%.
As for `COC(=O)CCCN1CCc2c(sc(NC(=O)Nc3ccc(Cl)cc3)c2C(N)=O)C1` [Example 20, Methyl 4-{3-carbamoyl-2-[3-(4-chlorophenyl)ureido]-4,5-dihydrothieno[2,3-c]pyridin-6(7H)-yl}butanoate hydrochloride], the EC50 lay within 1000 to 10000 nM. Besides, under setting [1], the Emax at 25 µM was 65%.
Take `CC(C)(C)C[N+]1(C)CCc2c(sc(NC(=O)Nc3ccc(Cl)c4ccccc34)c2C(N)=O)C1` (stereo not shown) [Example 183, 3-Carbamoyl-2-[3-(4-chloronaphthalen-1-yl)ureido]-6-methyl-6-neopentyl-4,5,6,7-tetrahydrothieno[2,3-c]pyridin-6-ium chloride]: the EC50 was in the range of 1000 to 10000 nM. The Emax at 8.3 µM under setting [1] turned out to be 70%.
Consider `NC(=O)c1c(NC(=O)Nc2ccc(Cl)cc2)sc2c1CCN(CCCNC(=O)CCc1c[nH]c3ccccc13)C2` [Example 209, 2-{[(4-chlorophenyl)carbamoyl]amino}-6-{3-[3-(1H-indol-3-yl)propanamido]propyl}-4H,5H,6H,7H-thieno[2,3-c]pyridine-3-carboxamide], for which the EC50 was less than 1000 nM. In addition, the Emax at 2.8 µM under setting [1] was found to be 98%.
With `CCN1CCc2c(sc(NC=O)c2C(N)=O)C1` [Example 108, 6-ethyl-2-formamido-4,5,6,7-tetrahydrothieno[2,3-c]pyridine-3-carboxamide hydrochloride], the Emax at 0.9 µM (maximum observed @ 0.9 μM test compound, 200 micromolar neomycin, read-out: Max HC Protection (HCmax, % hair cell survival)) came out at 13%.
`C[N+]1(CC23CC4CC(CC(C4)C2)C3)CCc2c(sc(NC(=O)Nc3ccc(Cl)cc3)c2C(N)=O)C1` (stereo not shown) [Example 197, 6-[(3r,5r,7r)-Adamantan-1-ylmethyl]-3-carbamoyl-2-[3-(4-chlorophenyl)ureido]-6-methyl-4,5,6,7-tetrahydrothieno[2,3-c]pyridin-6-ium chloride]: the EC50 is less than 1000 nM. The Emax at 2.8 µM under setting [1] amounted to 93%.
With `CC(C)(C)C[N+]1(C)CCc2c(sc(NC(=O)Nc3ccc4ccccc4c3)c2C(N)=O)C1` (stereo not shown) [Example 193, 3-Carbamoyl-6-methyl-2-(3-naphthalen-2-ylureido)-6-neopentyl-4,5,6,7-tetrahydrothieno[2,3-c]pyridin-6-ium trifluoroacetate], the EC50 was less than 1000 nM. The Emax at 25 µM under setting [1] was 98%.
